Results on eight molecules are retold here after PubChem BioAssay (NCI).

Test systems include BT-549 breast; CCRF-CEM leukemia; HCT-116 colon; HCT-15 colon; IGROV1 ovarian; MDA-MB-435; SK-MEL-5 melanoma; SR leukemia; U251 CNS; UACC-257 melanoma.
Holding throughout (experiment): NCI anticancer screen, dose series, 48 h

Each structure is given as a SMILES string. “And” between values parts separate entries of the source, which are not always exact repeats. Equal entries are not always repeated.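 A five-concentration, 48-hour dose response in 96-well plates underlies each endpoint, interpolated linearly between surrounding concentrations. Here, GI50 denotes the concentration required for 50% inhibition of growth. At the TGI there is no net growth.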 Bounds are passed on as bounds.

On to `Cc1nc2ccccc2c(/C=C/c2ccccc2)c1C(=O)/C=C/c1ccccc1`, for which the GI50 is 1.73 µM in the test on BT-549 breast; 2.51 µM with CCRF-CEM leukemia; 1.11 µM in the test on HCT-116 colon; 1.56 µM in the test with HCT-15 colon; 1.84 µM in the test on IGROV1 ovarian; 2.36 µM in the test on MDA-MB-435. The values for the GI50 in the test with SK-MEL-5 melanoma, in the test on SR leukemia and in the test with U251 CNS were 1.77 µM, 1.78 µM and 1.57 µM, respectively. Besides, the TGI in the test with BT-549 breast was 3.67 µM; in the test on CCRF-CEM leukemia, above 100 µM; with HCT-116 colon it was 2.56 µM; in the test with HCT-15 colon, 4.4 µM; in the test with IGROV1 ovarian it was 6.18 µM; in the test with MDA-MB-435, 6.71 µM. For the same molecule, the TGI with SK-MEL-5 melanoma is 3.17 µM; in the test with SR leukemia it was above 100 µM; with U251 CNS, 2.93 µM.
On to `CCCCCCC(O)C(O)CCC(O)C1CCC(CCCCC(O)CC2=CC(C)OC2=O)O1` (stereo not given), for which the TGI with BT-549 breast is 66.8 µM; with HCT-116 colon, 25.3 µM; in the test on HCT-15 colon it was 80.4 µM; with MDA-MB-435, 55.2 µM; in the test on SK-MEL-5 melanoma it was 7.07 µM and 13.4 µM; in the test on U251 CNS, above 100 µM. Further, in the test on UACC-257 melanoma, the TGI was 41.9 µM. For the same molecule, the GI50 in the test on HCT-116 colon was 1.28 µM; with HCT-15 colon it was 19.2 µM; in the test on U251 CNS it was 15.1 µM; in the test with UACC-257 melanoma, 3.16 µM.
On to `COc1c(N2CCN(CN3C(=O)C(=O)c4ccccc43)C(C)C2)c(F)cc2c(=O)c(C(=O)O)cn(C3CC3)c12` (stereo not given), for which the GI50 in the test on BT-549 breast was above 100 µM; in the test on HCT-116 colon, 44.9 µM; in the test on HCT-15 colon, 55.8 µM; in the test on IGROV1 ovarian it was above 100 µM; in the test with MDA-MB-435, 82.3 µM; in the test on SK-MEL-5 melanoma it was 35.3 µM. The GI50 in the test on SR leukemia was 32.1 µM; with U251 CNS it was above 100 µM; in the test on UACC-257 melanoma, above 100 µM. Moreover, the TGI in the test on BT-549 breast, with HCT-116 colon, with HCT-15 colon, with IGROV1 ovarian, with MDA-MB-435 and with SK-MEL-5 melanoma was above 100 µM each time. Besides, the TGI in the test with SR leukemia, with U251 CNS and in the test on UACC-257 melanoma was above 100 µM each time.
In the case of `C=C1C(=O)O[C@H]2[C@H]1CC/C(Cn1cc(-c3ccsc3)nn1)=C\CC[C@@]1(C)O[C@@H]21`, the GI50 is 1.8 µM with BT-549 breast; 1.63 µM in the test with CCRF-CEM leukemia; 1.16 µM in the test with HCT-116 colon; 1.11 µM in the test with HCT-15 colon; 1.92 µM in the test on IGROV1 ovarian; 1.85 µM in the test with MDA-MB-435. Moreover, the GI50 in the test on SK-MEL-5 melanoma is 1.83 µM; with SR leukemia, 0.56 µM; in the test on U251 CNS, 2.5 µM. The TGI in the test on BT-549 breast amounted to 5.21 µM; with CCRF-CEM leukemia it was 12.3 µM; with HCT-116 colon it was 2.76 µM; with HCT-15 colon, 2.54 µM; in the test with IGROV1 ovarian it was 5.03 µM; in the test on MDA-MB-435, 4.54 µM. Also, the TGI in the test with SK-MEL-5 melanoma was determined as 3.88 µM; in the test with SR leukemia, 9.39 µM; in the test with U251 CNS, 8 µM.
Turning to `Clc1ccc(COC(Cn2ccnc2)c2ccc(Cl)cc2Cl)c(Cl)c1` (stereo not given), the GI50 with BT-549 breast was 4.7 µM; in the test with CCRF-CEM leukemia, 4.55 µM; in the test on HCT-116 colon it was 2.87 µM; in the test on HCT-15 colon it was 3.94 µM; in the test on IGROV1 ovarian, 3.59 µM and 10.6 µM and 1.37 µM; in the test with MDA-MB-435, 2.39 µM. Besides, the GI50 with SR leukemia was 4.34 µM and 2.47 µM and 5.92 µM; with U251 CNS it was 3.57 µM; with UACC-257 melanoma it was 5.08 µM. For the same molecule, the TGI was 16 µM and 30.4 µM in the test with BT-549 breast; 21.2 µM and 24.8 µM and 19.8 µM in the test with CCRF-CEM leukemia; 11.3 µM and 18.4 µM and 17.7 µM with HCT-116 colon; 14.6 µM and 24.8 µM and 26.6 µM with HCT-15 colon; 15 µM and 24.7 µM and 10.9 µM in the test with IGROV1 ovarian; 6.89 µM and 13 µM and 9.97 µM with MDA-MB-435. Besides, the TGI with SR leukemia was 18.3 µM and 12.3 µM and 22.4 µM; in the test with U251 CNS it was 16.1 µM and 25.8 µM and 23.6 µM; with UACC-257 melanoma it was 17.7 µM and 30.3 µM and 23.2 µM.
Take `O=C(Nc1ccc(N2CCNCC2)cn1)c1[nH]ncc1Nc1ncnc2sccc12`: the GI50 in the test on BT-549 breast is 1.83 µM; in the test with CCRF-CEM leukemia, 1.25 µM; in the test with HCT-116 colon, 1.15 µM; with HCT-15 colon, 8.3 µM; in the test on IGROV1 ovarian, 4.27 µM; with MDA-MB-435 it was 1.59 µM. For the same molecule, the results for the GI50 in the test on SK-MEL-5 melanoma, in the test with U251 CNS and in the test with UACC-257 melanoma were 1.71 µM, 1.62 µM and 16.4 µM, respectively. The TGI in the test on BT-549 breast is 4.13 µM; with CCRF-CEM leukemia it was 6.97 µM; with HCT-116 colon, 3.09 µM; in the test with HCT-15 colon, above 100 µM; with IGROV1 ovarian, 24.6 µM; in the test on MDA-MB-435 it was 3.12 µM. The TGI in the test with SK-MEL-5 melanoma was 3.26 µM; in the test with U251 CNS, 3.35 µM; in the test with UACC-257 melanoma, 36.7 µM.
For `CCC1(N)C(=O)OCc2c1cc1n(c2=O)Cc2cc3ccccc3nc2-1` (stereo not given), the TGI with BT-549 breast is above 100 µM; in the test with HCT-116 colon, 23.4 µM and > 100 µM; in the test with HCT-15 colon, above 100 µM; with IGROV1 ovarian, above 100 µM; in the test on MDA-MB-435 it was above 100 µM; with SK-MEL-5 melanoma it was 20.4 µM and > 47.8 µM. Moreover, the TGI in the test with U251 CNS and in the test on UACC-257 melanoma was above 100 µM throughout. The GI50 in the test with CCRF-CEM leukemia is 1.96 µM; in the test with HCT-116 colon, 6.51 µM; in the test on HCT-15 colon it was 19.7 µM; in the test with IGROV1 ovarian it was 15.6 µM; in the test on MDA-MB-435 it was 21.1 µM; in the test with SK-MEL-5 melanoma it was 7.17 µM. The GI50 with U251 CNS is 4.9 µM; in the test with UACC-257 melanoma, 24.4 µM.
`C#CCN(Cc1nc2cc(C(F)(F)F)ccc2nc1-c1ccccc1)c1ccc(F)cc1`: the GI50 is 48 µM in the test on BT-549 breast; 27.1 µM in the test with CCRF-CEM leukemia; 20.8 µM in the test with HCT-116 colon; 29.5 µM in the test on HCT-15 colon; 23.1 µM in the test with IGROV1 ovarian; 38 µM in the test on MDA-MB-435. Moreover, the GI50 was 16.8 µM in the test on SK-MEL-5 melanoma, 38 µM with U251 CNS and 18.7 µM in the test on UACC-257 melanoma. The TGI in the test on BT-549 breast, in the test on CCRF-CEM leukemia, with HCT-116 colon, in the test with HCT-15 colon, in the test on IGROV1 ovarian and with MDA-MB-435 was above 100 µM in each case. Further, the TGI with SK-MEL-5 melanoma was 33.3 µM; in the test on U251 CNS it was above 100 µM; in the test with UACC-257 melanoma it was 63 µM.
